For orientation: IC50 means the concentration needed to halve the response being measured.

Structures are written as SMILES.

In assay [1] the target is Recombinant human CSF1R kinase (Homo sapiens (Human), UniProt P07333). Format: biochemical. The conditions noted are these: Z-LYTE Tyr 1 peptide substrate.
Assay [2] deals with CSF1R phosphorylation in THP-1 cells (Homo sapiens (Human), UniProt P07333). The assay can be described thus: Detection of CSF1R phosphorylation activity at cell level (THP-1, M-CSF stimulated, ELISA). Format: cell-based. The conditions noted are these: p-CSF1R ELISA, compound 60 min, 300 ng/mL M-CSF 1 min. As for the experimental part: Detection of CSF1R Phosphorylation Activity at Cell Level
Chain of CSF1R phosphorylation in THP-1 cells (P07333 20-972): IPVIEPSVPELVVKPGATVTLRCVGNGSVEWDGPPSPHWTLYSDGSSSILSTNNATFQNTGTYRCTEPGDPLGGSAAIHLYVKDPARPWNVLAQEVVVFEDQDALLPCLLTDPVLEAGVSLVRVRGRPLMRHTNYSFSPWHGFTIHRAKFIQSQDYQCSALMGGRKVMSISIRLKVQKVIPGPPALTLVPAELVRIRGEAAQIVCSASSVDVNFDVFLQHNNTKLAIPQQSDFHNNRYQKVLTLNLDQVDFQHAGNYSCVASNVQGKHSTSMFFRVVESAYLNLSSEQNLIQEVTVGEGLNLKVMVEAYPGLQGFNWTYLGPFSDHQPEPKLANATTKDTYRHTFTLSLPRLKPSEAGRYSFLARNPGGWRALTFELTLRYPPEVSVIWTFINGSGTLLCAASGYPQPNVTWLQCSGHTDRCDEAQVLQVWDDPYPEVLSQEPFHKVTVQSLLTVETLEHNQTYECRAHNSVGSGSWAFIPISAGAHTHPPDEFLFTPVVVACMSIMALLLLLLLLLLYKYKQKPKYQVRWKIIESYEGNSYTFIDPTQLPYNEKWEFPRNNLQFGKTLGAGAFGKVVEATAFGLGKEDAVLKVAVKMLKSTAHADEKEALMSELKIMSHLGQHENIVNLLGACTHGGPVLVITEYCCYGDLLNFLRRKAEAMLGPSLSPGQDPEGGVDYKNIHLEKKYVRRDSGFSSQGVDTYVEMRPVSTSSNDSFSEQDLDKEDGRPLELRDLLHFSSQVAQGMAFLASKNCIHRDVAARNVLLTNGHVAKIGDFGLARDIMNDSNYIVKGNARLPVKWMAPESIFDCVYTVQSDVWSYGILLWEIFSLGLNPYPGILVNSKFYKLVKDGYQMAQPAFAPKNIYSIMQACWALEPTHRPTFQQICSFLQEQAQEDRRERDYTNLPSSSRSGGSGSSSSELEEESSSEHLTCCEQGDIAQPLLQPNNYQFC
THP-1 (ATCC), human acute monocytic leukemia cells. The cells were cultured in an RPMI 1640 medium containing 10% FBS.
2. Reagents and instruments
• Human phosphorylation-CSF1R ELISA kit: R&D, #DYC3268-2; • RPMI 1640 culture solution: GIBCO, 910491; • Human M-CSF recombinant cytokine: R&D, 9216-MC-500; • Cell lysis buffer: Cell Signal, 99803S; • 1×PBS buffer (1 L): 8.0 g of NaCl, 0.2 g of KCl, 3.58 g of Na2HPO4-12H2O, 0.24 g of KH2PO4 were dissolved in 1 L of dd H2O, and the pH was adjusted to 7.4; • Blocking solution: PBS buffer containing 1% BSA; • PBST washing liquid: PBS buffer containing 0.05% Tween-20; • Chromogenic substrate: R&D, #DY999; • 2N H2SO4; • Microwell plate reader: Labsystems Multiskan K3: Thermo; Envision: Perkin Elmer; • ELISA plate: Corning, #9018; • Cell culture plate: Facol, #353027. 3. Treatment of cells and preparation of lysis buffer
THP-1 cells were resuspended in RPMI-1640 culture solution containing 2% FBS, and the culture was added to a 96-well plate at a density of 5×10^4/well, 50 μL/well, and cultured in a cell incubator at 5% CO2 and 37° C. overnight; The test compound was diluted with a serum-free RPMI-1640 medium to 3, 1.1, 0.37, 0.12, 0.04, 0.014, 0.005 and 0.002 μM, and the concentration of DMSO was 5%. 5 μL of the diluted compound was added to the 50 μL cell culture system, the culture was cultured in a 5% CO2, 37° C. cell incubator for 60 min, 300 ng/mL of M-CSF was added to the cells, and the mixture was stimulated in the 37° C. cell incubator for 1 min, added 50 μL of cell lysis buffer, and stored in a refrigerator at −80° C.
100 μL/well of the p-CSF1R capture antibody diluted to 0.8 μg/mL with PBS was added to the ELISA plate, and the plate was coated on a shaker at room temperature overnight. The culture was washed with PBST, and then added blocking solution and incubated at room temperature for 2 h. The culture was washed with PBST, added 90 μL of cell lysis buffer, and incubated on a shaker at 25° C. for 2 h. The plate was washed with PBST three times, added 100 μL of anti-p-tyrosine-HRP detection antibody diluted with 0.1% PBS-BSA diluent, and incubated on a shaker at 25° C. for 2 h. The plate was washed with PBST washing liquid, added 100 μL of chromogenic substrate and incubated at room temperature for 10-20 min. The reaction was stopped by adding 50 μL of 2N H2SO4. The optical density signal (450/570 nm) of each well was detected in Labsystems Multiskan K3 or Envision.
wherein • Drug-treated well read-out: indicating the optical density signal of a cell well with the test compound treatment. • Background read-out: indicating the optical density signal of a well without cells but with cell lysis buffer. • Cell well read-out: indicating the optical density signal of a cell well not treated with the compound. 6. Calculation of IC50: obtained by using XL-Fit 5.3 software. 7. Test results

Another assay deals with Ba/F3^BCR-FMS-11 cells. Kind of assay: Cell proliferation experiment (Ba/F3^BCR-FMS-11, cckit-8). Format: cell-based, mouse. The conditions noted are these: Ba/F3^BCR-FMS-11 cell proliferation. The method in brief: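 Ba/F3 cells stably expressing BCR-FMS, CSF-1R-dependent for growth, seeded at 5000/well in RPMI 1640 with 10% FBS and exposed to 8 compound concentrations for 72 h at 37 °C.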

Chain of Recombinant human CSF1R kinase (P07333 20-972): as above

Regarding `CC(C)n1nccc(C(=O)Nc2ccc(Oc3ccnc(-c4cnn(C)c4)c3)cn2)c1=O` [Compound 60], the IC50 was found to be 8 nM in assay [1]; 14 nM in assay [2]; 15 nM in the assay on Ba/F3^BCR-FMS-11 cells (Mus musculus, 72 h).
On the same counts, the results for `Cn1cc(-c2cc(Oc3ccc(NC(=O)c4cccn(C(F)F)c4=O)nc3)ccn2)cn1` [Compound 61] are 45 nM, 75 nM and 87 nM.
On the same counts, the results for `Cc1ncc(-c2cc(Oc3ccc(NC(=O)c4cnc(C)n(C)c4=O)nc3)ccn2)s1` [Compound 62] are 20 nM, 9 nM and 32 nM.
On the same counts, the results for `Cc1ncc(C(=O)Nc2ccc(Oc3ccnc(Nc4cnn(C)c4)c3)cn2)c(=O)n1C` [Compound 63] are 9 nM, 5 nM and 8 nM.
On to `Cc1ncc(C(=O)Nc2ccc(Oc3ccnc(-c4ccc5nccn5c4)c3)cn2)c(=O)n1C` [Compound 64], for which the IC50 is 16 nM in assay [1]; 21 nM in assay [2]; 40 nM with Ba/F3^BCR-FMS-11 cells (Mus musculus, 72 h).
On the same counts, the results for `Cc1ncc(C(=O)Nc2ccc(Oc3ccnc(Nc4ccccn4)c3)cn2)c(=O)n1C` [Compound 65] are 5 nM, 10 nM and 8 nM.
For `Cc1ncc(C(=O)Nc2ccc(Oc3ccnc(-c4ccn5ccnc5c4)c3)cn2)c(=O)n1C` [Compound 66] the same measures were 54 nM, 23 nM and 55 nM.
With `Cn1cc(Nc2cc(Oc3ccc(NC(=O)c4cccn(C)c4=O)nc3)ccn2)cn1` [Compound 67], the half-inhibitory concentration (IC50) in assay [1] worked out at 33 nM; in assay [2] it was 9 nM; in the assay with Ba/F3^BCR-FMS-11 cells (72 hours) it was 25 nM.
For the compound `Cc1ncc(C(=O)Nc2ccc(Oc3ccnc(Nc4ccn(C(F)F)n4)c3)cn2)c(=O)n1C` [Compound 68], the IC50 turned out to be 7 nM in assay [1]; 6 nM in assay [2]; 12 nM with Ba/F3^BCR-FMS-11 cells (Mus musculus, 72 h).
On the same counts, the results for `O=C(Nc1ccc(Oc2ccnc(Nc3ccn(C(F)F)n3)c2)cn1)c1cnc2n(c1=O)CCC2` [Compound 69] are 3 nM, 3 nM and 4 nM.
For `CC(C)n1cccc(C(=O)Nc2ccc(Oc3ccnc(-c4ccnn4C)c3)cn2)c1=O` [Compound 70] the same measures were 32 nM, 203 nM and 225 nM.
For the compound `CC(C)n1cccc(C(=O)Nc2ccc(Oc3ccnc(-c4ccn(C)n4)c3)cn2)c1=O` [Compound 71], the IC50 in assay [1] came to 10 nM; in assay [2] it was 36 nM; in the assay with Ba/F3^BCR-FMS-11 cells (Mus musculus, 72 h), 51 nM.
Consider `Cn1cc(-c2cc(Oc3ccc(NC(=O)c4cc5ccccc5n(C)c4=O)nc3)ccn2)cn1` [Compound 72], for which the IC50 in assay [1] came out at 14 nM; in assay [2] it was 16 nM; in the assay with Ba/F3^BCR-FMS-11 cells (Mus musculus, 72 h), 7 nM.
For `CC(C)c1ncc(C(=O)Nc2ccc(Oc3ccnc(-c4cnn(C)c4)c3)cn2)c(=O)n1C` [Compound 73] the same measures were 11 nM, 31 nM and 17 nM.
On the same counts, the results for `Cc1c(F)cc(C(=O)Nc2ccc(Oc3ccnc(Nc4cnn(C)c4)c3)cn2)c(=O)n1C` [Compound 75] are 8 nM, 14 nM and 7 nM.
Regarding `Cc1c(F)cc(C(=O)Nc2ccc(Oc3ccnc(Nc4ccnn4C)c3)cn2)c(=O)n1C` [Compound 76], the IC50 was found to be 5 nM in assay [1]; 18 nM in assay [2]; 4 nM in the assay with Ba/F3^BCR-FMS-11 cells (Mus musculus, 72 h).
`Cn1nccc1Nc1cc(Oc2ccc(NC(=O)c3cc(F)cn(C)c3=O)nc2)ccn1` [Compound 77]: the IC50 stood at 6 nM in assay [1]; 10 nM in assay [2]; 5 nM in the assay with Ba/F3^BCR-FMS-11 cells (Mus musculus, 72 h).
On the same counts, the results for `Cn1cc(Nc2cc(Oc3ccc(NC(=O)c4cc(F)cn(C)c4=O)nc3)ccn2)cn1` [Compound 78] are 15 nM, 11 nM and 11 nM.
For the compound `Cn1cc(-c2cc(Oc3ccc(NC(=O)c4cc(F)cn(C)c4=O)nc3)ccn2)cn1` [Compound 80], the IC50 in assay [1] was 4 nM; in assay [2] it was 3 nM; in the assay with Ba/F3^BCR-FMS-11 cells (Mus musculus, 72 h), 5 nM.
Consider `CN(C)CCn1cccc(C(=O)Nc2ccc(Oc3ccnc(-c4cnn(C)c4)c3)cn2)c1=O` [Compound 81, 1-(2-(dimethylamino)ethyl)-N-(5-((2-(1-methyl-1H-pyrazol-4-yl)pyridin-4-yl)oxy)pyridin-2-yl)-2-oxo-1,2-dihydropyridine-3-carboxamide], for which the IC50 in assay [1] was 34 nM; in assay [2], 145 nM; in the assay on Ba/F3^BCR-FMS-11 cells (Mus musculus, 72 hours) it was 143 nM.
In the case of `COCCn1cccc(C(=O)Nc2ccc(Oc3ccnc(-c4cnn(C)c4)c3)cn2)c1=O` [Compound 82], the IC50 in assay [1] stood at 6 nM; in assay [2] it was 11 nM; with Ba/F3^BCR-FMS-11 cells (Mus musculus, 72 h) it was 9 nM.
On the same counts, the results for `Cn1cc(-c2cc(Oc3ccc(NC(=O)c4cccn(C5COC5)c4=O)nc3)ccn2)cn1` [Compound 83] are 9 nM, 13 nM and 7 nM.
On the same counts, the results for `Cn1cc(-c2cc(Oc3ccc(NC(=O)c4cccn(CCO)c4=O)nc3)ccn2)cn1` [Compound 84] are 6 nM, 10 nM and 8 nM.
On the same counts, the results for `Cn1cc(-c2cc(Oc3ccc(NC(=O)c4cccn(C)c4=O)nc3)ccn2)cn1` [Compound 85] are 5 nM, 5 nM and 7 nM.
On to `CC(C)n1cccc(C(=O)Nc2ccc(Oc3ccnc(-c4cnn(C)c4)c3)cn2)c1=O` [Compound 86], for which the IC50 in assay [1] was found to be 5 nM; in assay [2] it was 7 nM; in the assay on Ba/F3^BCR-FMS-11 cells (Mus musculus, 72 h), 7 nM.
Take `C=CCn1cccc(C(=O)Nc2ccc(Oc3ccnc(-c4cnn(C)c4)c3)cn2)c1=O` [Compound 88]: the IC50 came to 3 nM in assay [1]; 10 nM in assay [2]; 8 nM in the assay on Ba/F3^BCR-FMS-11 cells (Mus musculus, 72 h).
For `Cn1cc(-c2cc(Oc3ccc(NC(=O)c4cccn(C5CCC5)c4=O)nc3)ccn2)cn1` [Compound 89] the same measures were 8 nM, 16 nM and 8 nM.
For `Cn1cc(-c2cc(Oc3ccc(NC(=O)c4ccc(C(F)(F)F)n(C)c4=O)nc3)ccn2)cn1` [Compound 90] the same measures were 6 nM, 10 nM and 2 nM.
On the same counts, the results for `Cc1ccc(C(=O)Nc2ccc(Oc3ccnc(-c4cnn(C)c4)c3)cn2)c(=O)n1C` [Compound 91] are 3 nM, 9 nM and 3 nM.
`Cc1nc(NC(=O)c2cccn(C(C)C)c2=O)ccc1Oc1ccnc(-c2cnn(C)c2)c1` [Compound 93, 1-isopropyl-N-(6-methyl-5-((2-(1-methyl-1H-pyrazol-4-yl)pyridin-4-yl)oxy)pyridin-2-yl)-2-oxo-1,2-dihydropyridine-3-carboxamide]: the IC50 in assay [1] amounted to 17 nM; in assay [2], 61 nM; with Ba/F3^BCR-FMS-11 cells (Mus musculus, 72 h), 13 nM.
On the same counts, the results for `CC(C)n1cccc(C(=O)Nc2ccc(Oc3ccnc(-c4cnn(CCO)c4)c3)cn2)c1=O` [Compound 95, N-(5-((2-(1-(2-hydroxyethyl)-1H-pyrazol-4-yl)pyridin-4-yl)oxy)pyridin-2-yl)-1-isopropyl-2-oxo-1,2-dihydropyridine-3-carboxamide] are 8 nM, 16 nM and 14 nM.

These data come from US12435062B2, “Amide compounds and uses thereof” (HUTCHISON MEDIPHARMA LIMITED, priority 2020, dated 2025).
